Assay [1] has as its system h2E2 anti-cocaine mAb. Nature of the assay: Isothermal titration calorimetry. It counts as binding. As to conditions: ITC, PBS, 20°C, mean ± SD of 4 experiments; for ΔG: calculated as ΔG = ΔH – TΔS; for Kd: reciprocal of fitted K.
The target in assay [2] is h2E2 anti-cocaine mAb. As to conditions: intrinsic fluorescence quenching, 20 °C, TBS buffer; cited from earlier work.
The target in a further assay is mAb08 anti-cocaine mAb. As to conditions: ITC; cited from earlier work. Background: ITC needs no label: the signal is the heat of the interaction.
A further assay addresses h2E2 Fc fragment (Homo sapiens, UniProt P01857). Nature of the assay: ITC of ligand binding to h2E2 Fc fragment. As to conditions: PBS pH 7.4, 20°C.

The values that follow come from PMC9516381 (Biochemistry and Biophysics Reports, 2022).

Where two headings read alike, the source gives them in different places.

Sequence of h2E2 Fc fragment (P01857 1-330 isoform P01857-1): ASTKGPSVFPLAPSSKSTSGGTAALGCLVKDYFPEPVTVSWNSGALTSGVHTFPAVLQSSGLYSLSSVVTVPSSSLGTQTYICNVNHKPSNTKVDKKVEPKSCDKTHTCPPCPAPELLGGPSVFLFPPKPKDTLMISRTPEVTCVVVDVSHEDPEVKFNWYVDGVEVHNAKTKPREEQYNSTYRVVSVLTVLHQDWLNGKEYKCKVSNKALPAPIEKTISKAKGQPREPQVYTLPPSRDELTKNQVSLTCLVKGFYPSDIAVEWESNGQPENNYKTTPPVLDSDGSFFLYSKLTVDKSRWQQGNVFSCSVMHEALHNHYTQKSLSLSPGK

The Kd is the concentration at which binding is half-saturated. In the case of `CN1[C@H]2CC[C@@H]1[C@@H](C(=O)O)[C@@H](OC(=O)c1ccccc1)C2` [Benzoylecgonine, benzoylecgonine], in the assay on h2E2 anti-cocaine mAb [1], the ΔG is -9.755 ± 0.106 kcal/mol, the “K (association)” value came out at 1.88e+07 ± 3.26e+06 M⁻¹, the ΔH was -15.44 ± 0.833 kcal/mol and the ΔS is −19.4 ± 2.5 cal/mol/deg. The Kd on h2E2 anti-cocaine mAb [1] amounted to 54.4 ± 8.77 nM. For the same compound, in the assay on h2E2 anti-cocaine mAb [1] (listed as benzoylecgonine), the ΔH result was “≈ -15,400 cal/mol”. For the same compound, on h2E2 anti-cocaine mAb [2], the Kd was ~20 nM.

Turning to `CCOC(=O)[C@@H]1C2CCC(C[C@@H]1OC(=O)c1ccccc1)N2C` (stereo partly drawn) [Cocaethylene, cocaethylene], in the assay on h2E2 anti-cocaine mAb [1], the ΔG is -11.152 ± 0.302 kcal/mol, the “K (association)” value worked out at 2.31e+08 ± 1.3e+08 M⁻¹, the ΔH is -13.988 ± 0.279 kcal/mol and the ΔS is on record as −9.67 ± 1.98 cal/mol/deg. The compound also returned a Kd at h2E2 anti-cocaine mAb [1] of 5.29 ± 2.4 nM. For the same compound, on h2E2 anti-cocaine mAb [2], the Kd was ~1 nM.

With `COC(=O)[C@H]1[C@@H](OC(=O)c2ccccc2)C[C@@H]2CC[C@H]1N2C` [Cocaine, cocaine], the Kd at mAb08 anti-cocaine mAb is 2.5 nM. Moreover, in the assay on h2E2 anti-cocaine mAb [1], the ΔG is -10.881 ± 0.187 kcal/mol, the “K (association)” value worked out at 1.33e+08 ± 4.54e+07 M⁻¹, the ΔH is -15.41 ± 0.368 kcal/mol and the ΔS was −15.4 ± 1.8 cal/mol/deg. Also, the affinity at h2E2 anti-cocaine mAb [1], expressed as Kd, was 8.13 ± 2.37 nM. In addition, in the assay with h2E2 anti-cocaine mAb [1] (listed as cocaine), the ΔH result is “≈ -15,400 cal/mol” and the Kd was ~8 nM. The dissociation constant Kd at h2E2 anti-cocaine mAb [2] is ~4 nM.

Take `COC(=O)[C@@H]1[C@H]2CC[C@@H](C[C@@H]1O)N2C` [Ecgonine Methyl Ester, ecgonine methyl ester]: in the assay with h2E2 anti-cocaine mAb [1], the ΔG is -6.381 ± 0.247 kcal/mol, the “K (association)” value came to 61375 ± 25024 M⁻¹, the ΔH is -2.336 ± 0.452 kcal/mol and the ΔS is on record as 13.80 ± 2.33 cal/mol/deg. Also, the affinity at h2E2 anti-cocaine mAb [1], expressed as Kd, was 18700 ± 8310 nM. The “binding to the Fc fragment” value on h2E2 Fc fragment is “no EME binding to the Fc fragment”.

For the compound `COC(=O)[C@H]1[C@@H](OC(=O)c2ccccc2)C[C@@H]2CC[C@H]1N2` [Norcocaine, norcocaine], in the assay with h2E2 anti-cocaine mAb [1], the ΔG is -7.85 ± 0.027 kcal/mol, the “K (association)” value stood at 704500 ± 36098 M⁻¹, the ΔH is -3.064 ± 0.15 kcal/mol and the ΔS amounted to 16.3 ± 0.58 cal/mol/deg. The same compound returned a Kd on h2E2 anti-cocaine mAb [1] of 1420 ± 72 nM.
